In patent US6407058B1, “Modifying the permeability of physiological barriers” (Eisai Co., Limited, priority 1996, dated 2002):

Experiments:
[1] = system: p100/p120; assay: p100/p120 electrophoretic mobility (band shift) by immunoblotting, MDCK I cells; assay type: cell-based; details: MDCK I; for block of PDB-induced p100/p120 band shift: pretreatment 5 minutes (bisindolylmaleimide I or V 2.5 μM, Ro 31-8425 5 μM), then 200 nM PDB 30 minutes; for reversal of PDB-induced p100/p120 band shift: 200 nM PDB 30 minutes, then 2.5 μM inhibitor added in presence of PDB
Protocol: The migration of the cellular proteins p100 and p120 during electrophoresis is increased following PDB-treatment of MDCK I cells. PDB (phorbol-12,13-dibutyrate) is a pharmacological activator of protein kinase C. MDCK I cells are a kidney derived epithelial cell line, with particularly well developed junctional complexes. Cells treated for 30 minutes with either 200 nM PDB (+) or vehicle (−) were then lysed into Laemmli sample buffer, and separated by electrophoresis using 6% acrylamide gels. Proteins were transferred to nitrocellulose and probed with antibodies to p100/p120, and then reprobed with E-cadherin and paxillin antibodies.
(§1) MDCK strain I and II cells were provided by Barry Gumbiner (memorial Sloan-Kettering Cancer Center, NY). LLC-PK1 and Caco-2 cells were obtained from the European Collection of Animal Cell Cultures. All cells were maintained at 37° C. under 5% CO2 in humidified air. MDCK strain I and II cells were maintained in MEM containing 10% FCS, 100 U/ml penicillin, 100 μg/ml streptomycin and 2 mM L-glutamine. Caco-2 cells were maintained in MEM containing 15% FCS, 1% non-essential amino acids and 1 μg/ml bovine insulin (Sigma I-6634). LLC-PK1 cells were grown in M199 (Gibco), 10% FCS, 100 U/ml penicillin, 100 μg/ml streptomycin and 2 mM L-glutamine. For whole cell lysate analysis, 10^5 cells were plated on 6.5 mm diameter, 0.4 μm, polycarbonate Transwell filters from Costar, in 0.25 ml of medium. The basolateral chamber contained 0.75 ml of medium. For immunoprecipitation, 5×10^5 cells were plated onto 24 mm Transwell filters, in 2 ml of medium, with 3 ml of medium in the lower chamber. Cells were used 4-7 days after plating. Tissue culture materials were from Gibco. Porcine brain endothelial cells were isolated and grown by modifications of a previously published procedure (Rubin et al., 1991). Brain capillary fragments were plated on dishes coated with rat tail collagen and human fibronectin. The cultures were fed every other day with growth medium composed of 50% astrocyte-conditioned medium and 50% Dulbecco's Modified Eagle Medium containing 10% plasma-derived serum, 125 μg/ml heparin, antibiotics and glutamine. They were incubated in a humidified atmosphere of 10% CO2 at 37° C. When the endothelial cells were approximately 50% confluent (after 4-6 days in culture), they were trypsinized and plated onto collagen-coated polycarbonate Transwell filters (6.5 mm diameter, 0.4 μm pore size, tissue culture treated, Costar Corp, Cambridge, Mass., U.S.A.) in the same medium (250 μl apically, 750 μl basolaterally). After 2-3 days on filters, the medium was switched to a 1:1 mixture of astrocyte-conditioned medium and a Dulbecco's Modified Eagle Medium-based, chemically defined medium (‘N2’, Rubin et al., 1991; Bottenstein and Sato, 1979). The final concentration of plasma-derived serum was 5%. Human umbilical vein endothelial cells were from Clonetics.
(§2) Whole cell lysates were prepared by rapidly replacing the culture medium in 6.5 mm with hot Laemmli sample buffer, followed by heating at 100° C. for 5 minutes. Immunoprecipitations were carried out at 4° C. Confluent monolayers of cells were washed rapidly with ice cold PBS (containing 0.9 mM CaCl2 and 0.5 mM MgCl2) before addition of 0.5 ml of the appropriate buffer. The filters were then gently scraped, and the lysate was removed and centrifuged at 14000× g. The supernatant was precleared with 10% (w/v) protein A-Sepharose in lysis buffer for 30-60 minutes. Appropriate primary antibodies were added to the lysate, and after 2-3 hours the immunecomplex was isolated, using rabbit anti-mouse secondary antibodies (Jackson Immunoresearch Labs Inc., West Grove, Pa.) and protein A-Sepharose. The beads were washed fives times with lysis buffer, and the bound protein was solubilized in SDS-sample buffer, followed by heating at 100° C. for 5 minutes.
Cell extracts or immunoprecipitates in SDS sample buffer were resolved by SDS-PAGE. […]

[2] = system: pig brain endothelial cell tight junctions; assay: transcellular electrical resistance (TER) of pig brain endothelial cell cultures; assay type: cell-based
Protocol: After 2 minutes the Transwells were returned to control medium and transcellular electrical resistance measurements were taken every minute for the following 18 minutes.
as §1
Transcellular electrical resistance (TER) measurements were taken with a pair of fixed, current-passing, voltage measuring electrodes (World Precision Instruments, Stevenage, Hertfordshire, U.K.). TER values are expressed in Ωcm^2 and were corrected for the resistance of cell-free filters.

[3] = system: brain endothelial cells tight junction; details: pig brain endothelial cells (Schulze et al.); cited from earlier work
[4] = system: p100/p120; assay: p100/p120 electrophoretic mobility, human umbilical vein endothelial cells (HUVECs); assay type: cell-based; details: HUVEC
[5] = system: p100/p120; assay: p100/p120 electrophoretic mobility, primary pig brain endothelial cells (PBECs); assay type: cell-based; details: for mobility of p120 and p100: LPA 10 μM
Protocol: (§3) Cells were treated with or without 200 nM PDB for 30 minutes, lysed into Laemmli sample buffer, separated by electrophoresis and analysed by immunoblotting with antibodies recognising p100 and p120.
as §1
as §2, with “A-Sepharose.” for “A-Sepharose. The beads were washed fives times with lysis buffer, and the bound protein was solubilized in SDS-sample buffer, followed by heating at 100° C. for 5 minutes.”

[6] = system: p100/p120; assay: p100/p120 electrophoretic mobility (band shift) by immunoblotting, MDCK I cells; assay type: cell-based
[7] = system: p100/p120; assay: p100/p120 electrophoretic mobility, human umbilical vein endothelial cells (HUVECs); assay type: cell-based; details: HUVEC; for mobility of p100 and p120, blocker alone: 10 μM blocker alone
Protocol: as §3
Human umbilical vein endothelial cells were incubated with histamine (His), pyrilamine (Pyr) or cimetidine (Cim) alone or in combination. As indicated, cells were preincubated in the absence or presence of cimetidine (10 μM) or pyrilamine (10 μM) for 10 minutes and then treated with or without histamine (10 μM) for a further 10 minutes. The cells were extracted and protein analysed by gel electrophoresis and immunoblotting. […] In the following examples, increase mobility of p100/p120 means decreased phosphorylation.
as §2
Cell extracts or immunoprecipitates in SDS sample buffer were resolved by SDS-PAGE. The slab gels were then equilibrated in buffer comprising; 48 mM Tris, 39 mM glycine, 20% methanol and 0.03% SDS. Proteins were transferred to nitrocellulose filters (Hybond ECL; Amersham), which were Ponceau S stained and then blocked for 2 hours at 37° C. with 1% BSA in PBS containing 0.05% Tween-20. Filters were then probed with p120 antibody, at a dilution of 1:2500. After washing, filters were incubated with horseradish peroxidase conjugated anti-mouse antibody (Amersham), at a dilution of 1:5000. The filters were then extensively washed in PBS/0.5% Tween-20, and immunoreactive bands were detected by enhanced chemiluminescence (Amersham) following the manufacturers instructions.

[8] = system: brain endothelial cells tight junction; assay: tight junction permeability in pig brain endothelial cells; assay type: cell-based; details: results not shown
[9] = 15 minutes, histamine 10 μM, LPA 10 μM, ATP 100 μM

CCCC(=O)O[C@@H]1[C@@H](C)[C@@]2(O)[C@@H](C=C(CO)C[C@@]3(O)C(=O)C(C)=C[C@@H]23)[C@@H]2C(C)(C)[C@]12OC(=O)CCC [4α-PDB]
effect on p100/p120 mobility ([1]; 200 nM 4α-PDB, 30 minutes): no effect

Cn1cc(C2=C(c3c4n(c5ccccc35)CCC(CN)C4)C(=O)NC2=O)c2ccccc21 (stereo not shown) [Ro 31-8425]
block of PDB-induced p100/p120 band shift [1]: completely abolished

OC[C@@H](O)[C@@H](O)[C@H](O)[C@@H](O)CO [sorbitol]
transcellular electrical resistance after treatment ([2]; 0.3M sorbitol, 10 minutes, from 677 before treatment): 73 Ωcm^2

CN1C(=O)C(c2c[nH]c3ccccc23)=C(c2c[nH]c3ccccc23)C1=O [bisindolylmaleimide V]
reversal of PDB-induced p100/p120 band shift [1]: did not reverse
block of PDB-induced p100/p120 band shift [1]: unable to block

lysophosphatidic acid [LPA]
tight junction permeability [3]: increases tight junction permeability
mobility of p100 and p120 [4, 9]: increase in the mobility
mobility of p120 and p100 ([5]; pig brain endothelial cells, 30 minutes): increased mobility
mobility of p120 and p100 ([5]; pig brain endothelial cells, 70 minutes): increased mobility
onset of LPA effect on p100/p120 ([5]; pig brain endothelial cells, further experiments): within a few minutes

Nc1ncnc2c1ncn2[C@@H]1O[C@H](COP(=O)(O)OP(=O)(O)OP(=O)(O)O)[C@@H](O)[C@H]1O [ATP]
mobility of p100 and p120 [4, 9]: increase in the mobility

CCCCCCCC(=O)OCC(CO)OC(=O)CCCCCCC (stereo not shown) [DiC8, 1,2-dioctanoylglycerol]
effect on p100/p120 mobility ([6]; 0.5 mM DiC8, 10 minutes): induces a p100/p120 mobility shift

CN[C@@H]1C[C@H]2O[C@@](C)([C@@H]1OC)n1c3ccccc3c3c4c(c5c6ccccc6n2c5c31)C(=O)NC4 [staurosporine]
effect on p100/p120 mobility ([6]; 100 nM staurosporine, 60 minutes): induced a p100/p120 band shift

CN/C(=N/CCSCc1nc[nH]c1C)NC#N [cimetidine]
mobility of p100 and p120, blocker alone [7]: no effect

C=C1[C@@H](O)[C@@H]2O[C@]3(CC[C@H](/C=C/[C@@H](C)[C@@H]4CC(C)=C[C@@]5(O[C@H](C[C@@](C)(O)C(=O)O)CC[C@H]5O)O4)O3)CC[C@H]2O[C@@H]1[C@@H](O)C[C@H](C)[C@H]1O[C@@]2(CCCCO2)CC[C@H]1C [okadaic acid]
effect on p100/p120 mobility ([6]; 1 μM okadaic acid, 60 minutes): upward band shift

COc1ccc(CN(CCN(C)C)c2ccccn2)cc1 [pyrilamine]
mobility of p100 and p120, blocker alone [7]: no effect
block of histamine effect on p100/p120 mobility ([7]; 10 μM preincubation 10 minutes, then histamine 10 μM 10 minutes): blocked the histamine effect

CCCOc1ccc2c(c1)c1c3c(c4c5ccccc5n5c4c1n2[C@H]1C[C@](O)(C(=O)OC)[C@]5(C)O1)CNC3=O [KT 5926]
effect on p100/p120 mobility ([6]; 1 μM KT 5926): also induced a p100/p120 band shift

COC[C@@H]([C@H](O)[C@H](O)C(=O)NCC[C@H](C)c1nc(/C=C/C[C@@H]2O[C@]3(C[C@@H](O)[C@@H]2C)O[C@H]([C@H](C[C@H](O)[C@H](C)[C@H](O)[C@H](C)/C=C(C)/C(C)=C/C=C/C(C)=C\C#N)OC)[C@H](OP(=O)(O)O)C3(C)C)co1)N(C)C [calyculin A]
effect on p100/p120 mobility ([6]; 100 nM calyculin A, 60 minutes): upward band shift

NCCc1c[nH]cn1 [histamine]
mobility of p120 and p100 ([4]; 5 minutes, histamine 10 μM, PDB 200 nM): increased mobility
mobility of p100 and p120 [4, 9]: increase in the mobility
mobility of p100 and p120 ([4]; histamine 10 μM, 10 minutes): induced an increased mobility
mobility of p100 and p120, time course ([4]; histamine, times indicated (FIG. 11)): rapid increase in the mobility

CN(C)CCCn1cc(C2=C(c3c[nH]c4ccccc34)C(=O)NC2=O)c2ccccc21 [bisindolylmaleimide I]
transcellular electrical resistance after sorbitol following bisindolylmaleimide pre-incubation ([2]; 2.5 μM bisindolylmaleimide pre-incubation, then 0.3M sorbitol 10 minutes, from 643 before treatment): 93 Ωcm^2
block of LPA-induced increase in tight junction permeability [8]: did not block
block of phorbol dibutyrate effect on p100/p120 mobility ([4]; bisindolylmaleimide 2 μM preincubation 15 minutes, then PDB 200 nM 5 minutes): blocked
block of histamine effect on p100/p120 mobility ([4]; bisindolylmaleimide 2 μM preincubation 15 minutes, then histamine 10 μM 5 minutes): not so strongly affected
reversal of PDB-induced p100/p120 band shift [1]: can be reversed
block of PDB-induced p100/p120 band shift [1]: completely abolished
prevention of sorbitol-induced increase in p100/p120 mobility ([5]; 2.5 μM bisindolylmaleimide 5 minutes pretreatment, then 0.3M sorbitol): not prevented
block of LPA-induced p100/p120 mobility increase ([5]; bisindolylmaleimide 2.5 μM preincubation 10 minutes, then LPA 10 μM 70 minutes): not blocked

OC[C@@H](O)[C@@H](O)[C@H](O)[C@H](O)CO [mannitol]
transcellular electrical resistance ([2]; 0.2-0.4 M mannitol, up to 6 hours): causes a drop
reversibility of drop in transcellular electrical resistance ([2]; 0.4M or 0.8M mannitol 2 minutes, then control medium 18 minutes): fully reversible
time at which drop in transcellular electrical resistance is clearly seen ([2]; 0.8M mannitol, recorded over 2 minutes): ≤ 20 s
